Patent EP0019589A1, “Tripeptide derivatives and their use in a process for determining enzymes” (Pentapharm A.G., priority 1979, dated 1980)
Non-standard residues stand in square brackets, D forms with d. Residues, ends and D or L forms follow the SMILES beside them. *: point of attachment. Cha = N[C@@H](CC1CCCCC1)C(=O)O; dCha = N[C@H](CC1CCCCC1)C(=O)O; dChg = N[C@@H](C(=O)O)C1CCCCC1; dPhg = N[C@@H](C(=O)O)c1ccccc1; pNA = O=[N+]([O-])c1ccc(N*)cc1

What was measured:
Type in all cases: biochemical
Urinkallikrein = target: T1, Urinkallikrein (Homo sapiens, UniProt P06870); test: Cleavage of chromogenic substrate by urinary kallikrein in human urine; conditions: 1 ml human urine (pooled morning urine of healthy persons), per min; Substratkonzentration 2 x 10^-4 molar
T1 construct: 1 ml Urin und 1 ml TRIS-Imidazol-Puffer mit pH 7,9; from tissue; host or cells: human urine
T1 sequence (P06870 25-262): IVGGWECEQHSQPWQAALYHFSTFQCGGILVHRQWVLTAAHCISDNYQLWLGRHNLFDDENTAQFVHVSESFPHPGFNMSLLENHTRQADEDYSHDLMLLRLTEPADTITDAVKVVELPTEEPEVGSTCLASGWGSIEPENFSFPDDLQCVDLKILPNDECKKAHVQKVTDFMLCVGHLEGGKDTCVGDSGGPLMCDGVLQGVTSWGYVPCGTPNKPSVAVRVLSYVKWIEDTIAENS
Description: 1. Bestimmung von Urinkallikrein.
1 ml Urin und 1 ml TRIS-Imidazol-Puffer mit pH 7,9 und Ionenstärke 1,0 werden 5 Min. bei 37°C inkubiert undcänn zentrifugiert, um Sedimente zu entfernen.
In einer-Plastikküvette werden 1,4 ml dest. H20 von 37°C und 0,4 ml des Zentrifugats gut gemischt. Zu dieser Mischung gibt man 0,2 ml einer 2 x 10^-3 molaren wässrigen Substratlösung und durchmischt die Komponenten schnell. Dieses Gemisch wird genau 15 Min. bei 37°C inkubiert. Dann wird dem Reaktionsgemisch 0,2 ml Eisessig zugemischt, um die Enzymreaktion zu unterbrechen. Zur Farbmessung verwendet man eine Vergleichsprobe (Blindprobe), die aus den gleichen Komponenten zusammengesetzt ist, wobei jedoch der Eisessig vor Zugabe des Substrates zugesetzt wird, um die Enzymreaktion zu verhindern. Dann wird bei 405 nm photometrisch oder spektrophotometrisch die Menge der gebildeten farbigen Verbindung RNH 2 aus der Differenz zwischen der Blindprobe und der zu bestimmenden Probe ermittelt. Aus dem ermittelten Wert wird die Urinkallikreinaktivität im Urin nach der folgenden Formel berechnet: [formula] • Δ OD = Zunahme der optischen Dichte bei 405 nm während 15 Min. • V = Totalvolumen des Bestimmungsansatzes = 2,2 ml • 1000 = Umrechnungsfaktor zur Umwandlung von U in mU • F = Verdünnungsfaktor des Urins (2) • v = Volumen der Probe = 0,4 ml • ε = Extinktionskoeffizient dividiert durch 1000 = 10,4
Bei der oben beschriebenen Bestimmungsmethode misst man somit die Summe der Aktivitäten von Urinkallikrein und Urokinase. Um die genaue Urinkallikreinaktivität zu erhalten, muss man die Urokinaseaktivität abziehen, welche dadurch bestimmt werden kann, dass man in einem Vergleichsversuch durch Zugabe von 0,075 Einheiten Trypsininhibitor (Trypsininhibitor aus Rinderlunge) pro ml Puffer die Urinkallikreinaktivität vollständig hemmt und nur die Urokinaseaktivität misst.
(§1) Bei der Messung des durch die enzymatische Hydrolyse des Substrates gebildeten Spaltproduktes RrNH2 geht man von der Voraussetzung aus, dass das Spaltprodukt ein UV-Spektrum besitzt, das von demjenigen des Substrates verschieden und in Richtung höherer Wellenlängen verschoben ist. Die Absorption des Substrates bei 405 nm ist praktisch Null. p-Nitroanilin als Spaltprodukt weist ein Absorptionsmaximum bei 380 nm und einen molaren Extinktionskoeffizienten von 13'200 auf. Bei 405 nm ist der Extinktionskoeffizient nur wenig niedriger, d.h. […] Der Grad der enzymatischen Hydrolyse des Substrates, welcher der Menge des abgespaltenen p-Nitroanilins proportional ist, lässt sich durch spektrophotometrische Messung bei 405 nm bestimmen. Auch bei Anwesenheit eines Ueberschusses an Substrat wird die Messung bei 405 nm nicht gestört.
(§2) Bei den Substraten, die als chromogene Gruppe eine 2-Naphthylamino-, 4-Methoxy-2-naphthylamino-, 4-Methyl-cumaryl-(7)-amino- oder 1,3-Di(methoxycarbonyl)-phenyl-(5)-amino-Gruppe enthalten, wird die Menge des Spaltproduktes R-NH2 durch Fluoreszenzspektrophotometrie gemessen. In einem aus Enzym, Puffer und Substrat bestehenden Testsystem misst man kontinuierlich das energieärmere emittierte Licht bei 400-470 nm, nachdem man das gebildete fluoreszierende Spaltprodukt mit energiereicherem Licht erregt hat. Die pro Zeiteinheit gebildete Menge Spaltprodukt ist ein Mass für die vorhandene Enzymaktivität. 1 µMol Spaltprodukt pro Minute entspricht definitionsgemäss 1 Enzym-Einheit, bezogen auf ein gegebenes Substrat.

Humanthrombin = target: T2, Humanthrombin (Homo sapiens, UniProt P00734); test: Cleavage of chromogenic substrate by human NIH thrombin; conditions: 1 NIH-Einheit human thrombin, per min; Substratkonzentration 2 x 10^-4 molar
T2 construct: Humanplasmin und hu-manem NIH-Thrombin
Text: as §1, §2

[1] = target: T3, Submandibularis-Kallikrein (Homo sapiens, UniProt P06870); test: Cleavage of chromogenic substrate by submandibular (glandular) kallikrein in human sputum; conditions: 1 ml human sputum, per min; Substratkonzentration 2 x 10^-4 molar
T3 construct: Man mischt 0,5 ml Sputum mit 2 ml TRIS-Imidazol-Puffer; from tissue; host or cells: human sputum
T3 sequence (P06870 25-262): as above
Description: 2. Bestimmung des Glandulärkallikreins im Sputum: • Man mischt 0,5 ml Sputum mit 2 ml TRIS-Imidazol-Puffer (Ionenstärke 1,0) und präinkubiert die Mischung 5 Min. bei 37°C. Das Inkubat wird zentrifugiert. In eine Testküvette wird 1,5 ml dest. H2O von 37°C vorgelegt und mit 0,25 ml des Zentrifugats versetzt. Die Komponenten werden gut gemischt. Dann wird 0,2 ml 2 x 10-^3 molare wässrige Substratlösung zugesetzt und gemischt. Dann wird bei 405 nm die Extinktions- änderung kontinuierlich mittels eines Schreibers während 5-10 Min. verfolgt. Aus dem ermittelten Δ OD pro Min. wird mittels der nachstehenden Formel die Kallikreinaktivität pro ml Sputum in mU errechnet: [formula] • F = 5 • V = 1,95 • v = 0,25 • 1 U (Einheit) = Enzymmenge, die während 1 Min. 1 µMol Substrat unter optimalen oder sonst festgelegten Bedingungen in Bezug auf pH, Ionenstärke, Temperatur und Substratkonzentration zu spalten vermag
as §1, with “gestört. […]” for “gestört.”

Humanplasmin = target: T4, Humanplasmin (Homo sapiens, UniProt P00747); test: Cleavage of chromogenic substrate by human plasmin; conditions: 1 CU-Einheit human plasmin, per min; Substratkonzentration 2 x 10^-4 molar
T4 construct: da bei der Aktivierung aus 1 Molekül Plasminogen 1 Molekül Plasmin entsteht
T4 sequence (P00747 581-810 limits assumed): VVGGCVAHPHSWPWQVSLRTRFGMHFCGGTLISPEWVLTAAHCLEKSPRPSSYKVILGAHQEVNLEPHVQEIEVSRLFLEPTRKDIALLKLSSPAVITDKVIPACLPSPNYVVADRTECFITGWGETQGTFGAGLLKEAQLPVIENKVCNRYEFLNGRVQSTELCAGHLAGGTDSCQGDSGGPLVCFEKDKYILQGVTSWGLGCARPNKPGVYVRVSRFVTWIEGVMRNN
T4 sequence (P00747 97-580 partner limits assumed): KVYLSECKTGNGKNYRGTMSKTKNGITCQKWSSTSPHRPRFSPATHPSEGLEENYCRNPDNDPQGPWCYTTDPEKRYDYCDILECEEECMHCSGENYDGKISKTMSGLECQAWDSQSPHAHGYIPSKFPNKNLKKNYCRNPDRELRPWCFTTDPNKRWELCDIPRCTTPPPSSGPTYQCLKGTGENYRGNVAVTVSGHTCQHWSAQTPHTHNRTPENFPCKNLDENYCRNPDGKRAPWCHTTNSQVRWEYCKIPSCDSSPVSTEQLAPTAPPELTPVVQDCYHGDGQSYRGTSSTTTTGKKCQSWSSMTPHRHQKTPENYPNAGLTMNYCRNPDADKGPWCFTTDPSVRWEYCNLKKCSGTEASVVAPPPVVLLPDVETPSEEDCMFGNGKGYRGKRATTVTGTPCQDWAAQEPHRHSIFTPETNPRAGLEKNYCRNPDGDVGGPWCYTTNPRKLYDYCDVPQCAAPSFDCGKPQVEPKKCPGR
Description: 3. Bestimmung von Plasmin:
Man mischt 1,7 ml TRIS-Imidazol-Puffer (pH 7,5, Ionenstärke 0,2) bei 37°C mit 0,1 ml einer Lösung von Plasmin in 25%igem Glycerin und inkubiert die Mischung während 1 Min. bei 37°C. Dann gibt man der Mischung 0,2 ml einer wässrigen 2 x 10^-3 molaren Substxatlösung von 37°C zu und durchmischt das Ganze schnell. Man ermittelt dann kontinuierlich die pro Zeiteinheit aus dem Substrat freigesetzte Menge des Spaltproduktes R-NH2. Aus dem pro Min. ermittelten Wert berechnet man dann die Plasminaktivität pro ml Probe in mU nach der folgenden Formel: [formula] • ΔE = pro Min. freigesetzte Menge des Spaltproduktes • V = Totalvolumen des Testansatzes • v = Volumen der Probe • = Extinktionskoeffizient dividiert durch 1000
as §1, §2

| Structure (SMILES) | Menge des durch 1 ml Humanurin pro Min. freigesetzten Spaltproduktes R-NH2 in Nanomol (Urinkallikrein) (Urinkallikrein) | Menge des durch 1 NIH-Einheit Thrombin pro Min. freigesetzten Spaltproduktes R-NH2 in Nanomol (Humanthrombin) (Humanthrombin) | Menge des durch 1 ml Humansputum pro Min. freigesetzten Spaltproduktes R-NH2 in Nanomol (Submandibularis-Kallikrein) [1] | Menge des durch 1 CU-Einheit Humanplasmin pro Min. freigesetzten Spaltproduktes R-NH2 in Nanomol (Humanplasmin) (Humanplasmin) |
| --- | --- | --- | --- | --- |
| N=C(N)NCCC[C@H](NC(=O)[C@H](CC1CCCCC1)NC(=O)[C@H](N)C1CCCCC1)C(=O)Nc1ccc([N+](=O)[O-])cc1 [Beispiel 1, H-D-CHG-CHA-Arg-pNA.2HBr] (H-[dChg]-[Cha]-Arg-pNA) | 0,84 Nanomol | 8,27 Nanomol | 12,9 Nanomol | 699 Nanomol |
| CC(C)C[C@H](NC(=O)[C@H](N)C1CCCCC1)C(=O)N[C@@H](CCCNC(=N)N)C(=O)Nc1ccc([N+](=O)[O-])cc1 [Beispiel 11, 2HBr.H-D-CHG-Leu-Arg-pNA] (H-[dChg]-Leu-Arg-pNA) | 0,60 Nanomol | 33,9 Nanomol | 11,6 Nanomol | 381 Nanomol |
| CC(C)[C@@H](N)C(=O)N[C@@H](CC1CCCCC1)C(=O)N[C@@H](CCCNC(=N)N)C(=O)Nc1ccc([N+](=O)[O-])cc1 [Beispiel 12, 2HBr.H-D-Val-CHA-Arg-pNA] (H-[dV]-[Cha]-Arg-pNA) | 2,75 Nanomol | 4,0 Nanomol | 30,5 Nanomol | 421 Nanomol |
| CC[C@@H](C)[C@@H](N)C(=O)N[C@@H](CC1CCCCC1)C(=O)N[C@@H](CCCNC(=N)N)C(=O)Nc1ccc([N+](=O)[O-])cc1 [Beispiel 13, 2HBr.H-D-Ile-CHA-Arg-pNA] (H-[dI]-[Cha]-Arg-pNA) | 2,67 Nanomol | 7,44 Nanomol | 36,6 Nanomol | 446 Nanomol |
| CC(C)[C@@H](N)C(=O)N[C@@H](CC1CCCCC1)C(=O)N[C@@H](CCCCN)C(=O)Nc1ccc([N+](=O)[O-])cc1 [Beispiel 14, 2HBr.H-D-Val-CHA-Lys-pNA] (H-[dV]-[Cha]-Lys-pNA) | 1,02 Nanomol | 0,35 Nanomol | 6,7 Nanomol | 505 Nanomol |
| CC[C@@H](C)[C@@H](N)C(=O)N[C@@H](CC1CCCCC1)C(=O)N[C@@H](CCCCN)C(=O)Nc1ccc([N+](=O)[O-])cc1 [Beispiel 15, 2HBr.H-D-Ile-CHA-Lys-pNA] (H-[dI]-[Cha]-Lys-pNA) | 2,50 Nanomol | 0,39 Nanomol | 23,1 Nanomol | 440 Nanomol |
| N=C(N)NCCC[C@H](NC(=O)[C@H](Cc1ccccc1)NC(=O)[C@H](N)C1CCCCC1)C(=O)Nc1ccc([N+](=O)[O-])cc1 [Beispiel 16, 2HBr.H-D-CHG-Phe-Arg-pNA] (H-[dChg]-Phe-Arg-pNA) | 3,31 Nanomol | 17,1 Nanomol | 32,2 Nanomol | 1200 Nanomol |
| N=C(N)NCCC[C@H](NC(=O)[C@H](CC1CCCCC1)NC(=O)[C@H](N)c1ccccc1)C(=O)Nc1ccc([N+](=O)[O-])cc1 [Beispiel 18, 2HBr.H-D-Ph'Gly-CHA-Arg-pNA] (H-[dPhg]-[Cha]-Arg-pNA) | 0,67 Nanomol | 4,53 Nanomol | 8,5 Nanomol | 1200 Nanomol |
| N=C(N)NCCC[C@H](NC(=O)[C@@H]1CCCN1C(=O)[C@H](N)CC1CCCCC1)C(=O)Nc1ccc([N+](=O)[O-])cc1 [Beispiel 19, 2HBr.H-D-CHA-Pro-Arg-pNA] (H-[dCha]-Pro-Arg-pNA) | 1,40 Nanomol | 54,4 Nanomol | 8,1 Nanomol | 1200 Nanomol |
| NCCCC[C@H](NC(=O)[C@H](CC1CCCCC1)NC(=O)[C@H](N)C1CCCCC1)C(=O)Nc1ccc([N+](=O)[O-])cc1 [Beispiel 20, 2HBr.H-D-CHG-CHA-Lys-pNA] (H-[dChg]-[Cha]-Lys-pNA) | 0,28 Nanomol | 0,99 Nanomol | 4,4 Nanomol | 500 Nanomol |
| CC(C)C[C@H](NC(=O)[C@H](N)C1CCCCC1)C(=O)N[C@@H](CCCCN)C(=O)Nc1ccc([N+](=O)[O-])cc1 [Beispiel 21, 2HBr.H-D-CHG-Leu-Lys-pNA] (H-[dChg]-Leu-Lys-pNA) | 0,40 Nanomol | 1,20 Nanomol | 2,2 Nanomol | 460 Nanomol |
